Tests used:
Gtl2/Dlk1 (Gtl2 locus) = assay: Methylation / activity of the Gtl2 locus in iPS cell lines derived with or without VPA; type: cell-based, mouse; settings: VPA+ (n = 15 cell lines)
From the text: In some embodiments, the induction conditions include contacting the cells with a histone deacetylase inhibitor or other compound that alters epigenetic marks. […] See, Stadfeld, et al., Nature. 465(7295):175-81 (2010); Liu et al., J Biol Chem. 285(25):19483-90 (2010). Normal ESCs express genes from one of the two parental chromosomes. Previous non-fully pluripotent IPSC lines have reduced expression from both parental Gtl loci by allowing extra epigenetic marking. These iPSC lines have methylated both Gtl2 loci and also may have distinct histone acetylation and methylation that turns off gene expression which correlates with or causes failure to generate live animals. The methods described herein produce a high frequency of cell lines that generate mice and these lines have an active and properly imprinted (i.e., hemi-methylated and histone acetylated) Gtl2 locus. When the epigenetic remodeling compound, VPA is removed from the method but no other variables are changed, the Gtl2 locus is no longer active or properly imprinted in the majority of cell lines. Therefore inclusion of VPA, or other histone deacetylase inhibitors or epigenetic remodeling compounds, regulates imprinting of the Gtl2 locus and other genomic regions that control pluripotency.

[1] = test system: mouse embryonic fibroblasts (MEFs); assay: Dox-inducible lentiviral reprogramming of fibroblasts to iPSC colonies; type: cell-based
From the text: We reasoned that inappropriate expression of reprogramming genes during development could inhibit embryonic and postnatal development. Therefore, we designed a drug-inducible lentiviral reprogramming strategy to achieve tight control of transgene expression in iPSCs and their derivatives (FIG. 1b)^19. The four original reprogramming factors (Oct4, Sox2, Klf4 and cMyc) were placed under control of the tetO promoter, which is activated by the reverse tetracycline transactivator (rtTA) protein in the presence of the tetracycline analog doxycycline (dox). We used an enhanced version of the rtTA transcriptional activator protein (rtTAM2.2) that induces higher gene expression levels than the rtTAM2 protein^20. To promote complete reprogramming and facilitate isolation of fully reprogrammed iPSCs we exposed MEFs to the histone deacetylase inhibitor valproic acid (VPA), which has been reported to enhance reprogramming efficiency^21 and to select against incompletely reprogrammed cells by inhibiting cell division^22 (Supplementary methods).
Generation of iPSCs. Mouse embryonic fibroblasts (MEFs) were prepared from Pcdh21/Cre-Z/EG (iMZ lines) or Nex/Cre-Z/EG (iNZ lines) E13.5 embryos. Generation of iMZ lines: After 24 hours in culture, individual wells of ˜300,000 MEFs were transduced with lentiviruses (day 1) and split 1:2 (day 2) and 1:3 (day 3) to generate 6 wells of transduced MEFs. On post-transduction day 4, dox (10 μg/ml) was added to four wells to induce expression of reprogramming genes; three of these wells were also treated with VPA (1.9 mM). The remaining two wells were treated with nothing, or VPA alone. To maintain conditions for optimal MEF growth and viability, on post-transduction day five, the three dox+VPA wells were expanded into a 15 cm^2 dish while the other three conditions were expanded to 10 cm^2 dishes. […] On day 14, additional colonies were isolated, of which 12 were expanded (lines iMZ-9-21) and characterized further. […] On post-transduction day 17, all putative iPSC lines were transferred to fresh feeders in single 96 well plates. Cell lines were expanded into two wells on post-transduction day 21. Cells were maintained in dox+VPA until post-transduction day 23, when both were removed. All cell lines appeared to maintain ESC like morphology and proliferation rates. Lines were expanded to 24 well plates on day 24. Subsequently, cell lines were banked and maintained as described in the cell culture conditions section. Generation of iNZ lines: Initial reprogramming conditions were identical to those of iMZ lines except that cells were split 1:2 on post-transduction day 3 to generate four wells (dox+VPA, dox only, VPA only and no treatment). Cells were split once after dox and VPA addition. […]

Row | Structure (SMILES) | % iPS Cell Lines with Active Gtl2 Locus: % Locus Unmethylated High (>40%) (Gtl2/Dlk1 (Gtl2 locus); share of lines in class High (>40%)) [%] | % iPS Cell Lines with Active Gtl2 Locus: % Locus Unmethylated Low (1-10%) (Gtl2/Dlk1 (Gtl2 locus); share of lines in class Low (1-10%)) [%] | % iPS Cell Lines with Active Gtl2 Locus: % Locus Unmethylated Medium (10-40%) (Gtl2/Dlk1 (Gtl2 locus); share of lines in class Medium (10-40%)) [%] | % iPS Cell Lines with Active Gtl2 Locus: % Locus Unmethylated Negative (not detectable) (Gtl2/Dlk1 (Gtl2 locus); share of lines in class Negative (not detectable)) [%] | colony emergence in the absence of dox ([1]; iMZ MEFs, VPA alone 1.9 mM, no dox) | post-transduction day on which colonies were observed ([1]; iMZ lines, Pcdh21/Cre-Z/EG MEFs, dox 10 μg/ml, VPA 1.9 mM from day 4) | post-transduction day on which colonies were observed ([1]; iNZ lines, Nex/Cre-Z/EG MEFs) | colonies observed on day 14 ([1]; iNZ lines, Nex/Cre-Z/EG MEFs, post-transduction day 14)
1 | CCCC(CCC)C(=O)O [VPA, valproic acid] | 27 | 40 | 33 | 0 | No colonies emerged |  |  | 
2 | C[C@H]1c2cccc(O)c2C(=O)C2=C(O)[C@]3(O)C(=O)C(C(N)=O)=C(O)[C@@H](N(C)C)[C@@H]3[C@@H](O)[C@@H]21 [dox, doxycycline] |  |  |  |  |  | 11 | 11 | 19

From patent publication US20120178158A1, “ADULT ANIMALS GENERATED FROM INDUCED PLURIPOTENT CELLS” (The Scripps Research Institute, priority 2009, published 2012)
